Values joined by “and” are separate entries in the source; they are usually repeats but may differ in a detail not shown here. Equal values may be shown once. Read-outs that look alike come from different tables or passages of the source.
Columns and labels:
human ADORA1 = target: T1, human ADORA1 (Homo sapiens, UniProt P30542); assay: PRESTO-Tango β-arrestin recruitment, ADORA1 transfected HTLA cells; assay type: cell-based; conditions: for RLU: replicates (1)-(4)
T1 sequence (P30542 1-326): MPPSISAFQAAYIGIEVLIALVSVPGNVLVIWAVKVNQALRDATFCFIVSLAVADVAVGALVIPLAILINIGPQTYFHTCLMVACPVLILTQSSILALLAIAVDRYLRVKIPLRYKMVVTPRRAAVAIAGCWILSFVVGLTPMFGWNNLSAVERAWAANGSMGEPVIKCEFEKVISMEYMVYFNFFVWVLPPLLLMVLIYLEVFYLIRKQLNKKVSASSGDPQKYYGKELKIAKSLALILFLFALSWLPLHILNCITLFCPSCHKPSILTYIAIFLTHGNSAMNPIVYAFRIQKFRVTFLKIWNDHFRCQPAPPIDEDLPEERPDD

[1] = test system: female gubernaculum (mouse RXFP2 receptor in vivo); assay: Gubernaculum development in female embryos of treated pregnant mice (histology); conditions: 30 mg/kg IP to pregnant females, E12.5 to E17.5
Description: The INSL3 surge that drives gubernaculum development during the transabdominal stage of testicular descent in male mice occurs between embryonic day E14.5 and 17.5[5],[6],[41]. In females, there is no detectable INSL3 expression and therefore the gubernaculum remains underdeveloped as a vestigial structure. […] Therefore, we hypothesized that the small molecule agonists of RXFP2 would show similar effects in female mice. Compound activity was tested by injecting pregnant females with the RXFP2 agonists starting from day E12.5 to E17.5 of embryonic development followed by histological evaluation of the gubernaculum in developing female embryos. […] At E18.5 the processus vaginalis or outpouching of the peritoneum occurs in males at the site of gubernacular caudal connection[43] (Fig. 3a). […] No differences were detected in the position of the ovaries in compound-treated female embryos and controls.
Fig. 3 RXFP2 agonists are biologically active and selective in vivo. a Diagram of the treatment protocol and representative histological section of the developed male gubernaculum at embryonic day 18.5 (upper left). b Representative histological sections showing a male-like invagination of the female gubernaculum in all compound-treated embryos (blue arrows). Four female embryos were analyzed per group. Scale bar = 100 µm. […]

RXFP2 = RXFP2 (Homo sapiens, UniProt Q8WXD0); assay: HTRF cAMP assay in HEK-RXFP2 cells (stably transfected; also primary HTS); assay type: cell-based; design: FLAG (N); expressed in transfected cells; conditions: for % Eff (cAMP response): experiments (1)-(3), 100 nM INSL3 = 100%, DMSO = 0%; for EC50: HEK-RXFP2
RXFP2, sequence (Q8WXD0 whole entry): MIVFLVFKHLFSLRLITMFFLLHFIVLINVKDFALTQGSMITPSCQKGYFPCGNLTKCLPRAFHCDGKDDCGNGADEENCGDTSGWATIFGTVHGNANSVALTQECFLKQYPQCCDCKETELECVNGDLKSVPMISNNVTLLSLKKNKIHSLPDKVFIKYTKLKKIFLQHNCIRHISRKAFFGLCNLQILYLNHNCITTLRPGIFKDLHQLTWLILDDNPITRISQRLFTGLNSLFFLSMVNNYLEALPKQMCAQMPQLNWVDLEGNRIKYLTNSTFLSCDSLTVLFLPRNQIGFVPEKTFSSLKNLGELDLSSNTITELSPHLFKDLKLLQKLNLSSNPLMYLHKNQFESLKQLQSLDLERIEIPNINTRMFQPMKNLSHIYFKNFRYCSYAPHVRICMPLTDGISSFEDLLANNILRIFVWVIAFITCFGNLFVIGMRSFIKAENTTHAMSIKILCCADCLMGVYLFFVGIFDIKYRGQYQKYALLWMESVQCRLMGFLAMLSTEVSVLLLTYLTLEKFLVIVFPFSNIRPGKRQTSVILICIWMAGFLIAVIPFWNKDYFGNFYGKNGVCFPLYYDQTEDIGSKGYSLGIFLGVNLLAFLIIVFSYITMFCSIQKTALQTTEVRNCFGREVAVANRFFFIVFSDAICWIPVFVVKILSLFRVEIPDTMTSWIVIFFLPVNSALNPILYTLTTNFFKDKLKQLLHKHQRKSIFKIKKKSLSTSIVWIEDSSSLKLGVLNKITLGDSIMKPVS
Description: A quantitative high-throughput screening (HTS) of more than 80 K compounds of the NCATS/NIH diversity collection was performed at four concentrations in HEK293T cells stably expressing human RXFP2 to identify candidate agonists. A homogenous time resolved fluorescence (HTRF) assay was used to directly detect compound-induced cAMP accumulation, with forskolin or human recombinant INSL3 serving as positive controls. […] A confirmatory CRE-luciferase cAMP screen was used to eliminate any potential false positives due to assay detection artifacts (Supplementary Fig. 1a).
The cAMP response induced by the compounds was normalized to the cAMP response induced by 100 nM INSL3 as 100% efficacy and the cAMP response induced by DMSO vehicle as 0% efficacy. Emax and EC50 were calculated using four parameter nonlinear fit dose-response stimulation curves. […] Molecular weight (MW).
The HTRF Gs dynamic cAMP assay kit (CisBio, Bedford, MA) was used to measure intracellular cAMP accumulation in HEK293T cells (ATCC, Manassas, VA)[56]. […] The cell stock was verified mycoplasma free and authenticated by ATCC. Transient transfection was accomplished by treating cells in a 6-well plate with a mixture of 2 μg plasmid and 6 μL Lipofectamine 2000 (Invitrogen, Waltham, MA) per manufacturer’s protocol and incubating overnight. For cAMP measurement in 96-well format, HEK293T cells stably transfected with human RXFP2 (HEK-RXFP2), human RXFP1 (HEK-RXFP1), mouse Rxfp1 (HEK-Rxfp1) or transiently transfected with human RXFP1-RXFP2 chimeric receptors were seeded between 7500 and 30,000 cells per well, depending on cell line responsiveness, in serum-free DMEM medium and incubated overnight at 37 °C, 5% CO2. After 18 h, cells were treated with a titration of compound, 2 μM forskolin, or DMSO vehicle. Control wells were also treated with a titration of INSL3 (Phoenix Pharmaceuticals, Burlingame, CA) or human recombinant relaxin 2 (Peprotech, Cranbury, NJ). For the RXFP2 antagonist experiment, cells were co-treated with 0.28 μM compound or 30 nM INSL3 and a titration of the INSL3 B dimer antagonist[38],[39]. For the INSL3 allosteric modulation experiment, cells were co-treated with 0.025, 0.0025, or 0.00025 μM of compound and a titration of INSL3. Cells were incubated for 1 h at 37 °C, 5% CO2, and then kit cAMP-d2 and anti-cAMP antibody were added per manufacturer protocol. Plates were incubated for 1 h at room temperature and the signal was read on a CLARIOstar plate reader (BMG Labtech, Ortenberg, Germany) at 665 and 620 nm emission wavelengths.

[2] = follow-up test using multiple compound concentrations

O=C1Nc2ccc(-c3cc(C(F)(F)F)cc(C(F)(F)F)c3)cc2C(=O)N2CCN(C(=O)COc3ccc(OC(F)(F)F)cc3I)C[C@@H]12 [compound 6641]
β-arrestin recruitment, ADORA1 (mean ± SEM) (human ADORA1; 10 µM compound, basal level of detection 3-fold RLU): 3.92 ± 0.15 fold RLU | RLU (human ADORA1; Log [M] -4.52): 12779.2 RLU and 12694.9 RLU | RLU (human ADORA1; Log [M] -5): 11730.3 RLU and 10165.7 RLU and 11306.6 RLU | RLU (human ADORA1; Log [M] -5.52): 8500.46 RLU and 7004.94 RLU and 7182.3 RLU and 7062.97 RLU | RLU (human ADORA1; Log [M] -6): 6700.59 RLU and 4967.56 RLU and 5863.08 RLU and 4072.06 RLU | RLU (human ADORA1; Log [M] -6.52): 3400.99 RLU and 2989.38 RLU and 3675.77 RLU and 3380.19 RLU | RLU (human ADORA1; Log [M] -7): 3045.21 RLU and 3372.53 RLU and 2679.57 RLU and 3462.3 RLU | RLU (human ADORA1; Log [M] -7.52): 2808.75 RLU and 2538.36 RLU and 2762.77 RLU and 2945.59 RLU | RLU (human ADORA1; Log [M] -8): 3154.68 RLU and 2602.94 RLU and 3418.51 RLU and 3449.16 RLU | RLU (human ADORA1; Log [M] -8.52): 2742.95 RLU and 3614.63 RLU and 3319.34 RLU and 3617.47 RLU | RLU (human ADORA1; Log [M] -9): 3242.68 RLU and 2896.28 RLU and 3413.04 RLU and 3315.08 RLU | RLU (human ADORA1; Log [M] -9.52): 3821.91 RLU and 2910.47 RLU and 2806.84 RLU and 4087.39 RLU | RLU (human ADORA1; Log [M] -10): 2500.19 RLU and 3249.78 RLU and 3509.58 RLU and 3875.86 RLU | RLU (human ADORA1; Log [M] -10.52): 3874.43 RLU and 2887.76 RLU and 2717.4 RLU and 3465.57 RLU | RLU (human ADORA1; Log [M] -11): 3657.22 RLU and 3613.21 RLU and 3589.08 RLU and 3231.32 RLU | RLU (human ADORA1; Log [M] -11.52): 2119.72 RLU and 4131.4 RLU and 3244.1 RLU and 3141.88 RLU | RLU (human ADORA1; Log [M] -12): 3765.12 RLU and 3810.55 RLU and 4489.16 RLU and 3752.34 RLU | ADORA1 β-arrestin efficacy compared with NECA (human ADORA1; [2]): much lower efficacy | concentrations at which ADORA1 responded (β-arrestin) (human ADORA1; [2]): above 1 µM | gubernaculum phenotype of female embryos at E18.5 [1]: male-like invagination of the gubernaculum | % Eff (cAMP response) (RXFP2; Log [M] -4.60): 104.78% and 100.31% and 87.28% | % Eff (cAMP response) (RXFP2; Log [M] -5.60): 76.57% and 72.45% and 73.51% | % Eff (cAMP response) (RXFP2; Log [M] -6.60): 55.58% and 48.02% and 47.8% | % Eff (cAMP response) (RXFP2; Log [M] -7.60): 15.09% and 15.05% and 13.98% | % Eff (cAMP response) (RXFP2; Log [M] -8.60): 1.51% and 0.43% and 1.99% | % Eff (cAMP response) (RXFP2; Log [M] -9.60): -0.34% and 0.01% and 0.17% | Emax (1)-(3) (RXFP2; individual experiments, % vs. 100 nM INSL3): 115% and 116.5% and 89.48% | EC50 (RXFP2; individual experiments, read-out: EC50 (1)-(3)): 358 nM and 568 nM and 217 nM | Emax (% vs. 100 nM INSL3) (AVERAGE) (RXFP2; mean (± SEM) of 3 independent experiments): 107% and 106.99 ± 8.77% and 106.99% | EC50 (RXFP2; mean (± SEM) of 3 independent experiments, read-out: EC50 (AVERAGE)): 380 nM and < 1000 nM

From paper PMC9636434, “Discovery of small molecule agonists of the Relaxin Family Peptide Receptor 2” (Communications Biology, 2022)
